Reference: PMC11229689, “In Vitro Selection of Macrocyclic L-α/D-α/β/γ-Hybrid Peptides Targeting IFN-γ/IFNGR1 Protein–Protein Interaction” (Journal of the American Chemical Society, 2024)
*1 amine or outer side, *2 acyl side, *3 side chain or, on linkers, in order; H or OH if unused. Where a SMILES comes first, the peptide text is derived from it. Bridges are numbered along the chain shown (N, C = ends). [ ]: non-standard residue; d: D form. Acbc(cis-1,3) = O=C([C@H]1C[C@@H](N[*:1])C1)[*:2]; X1 = O=C([C@@H]1CCC[C@@H]1N[*:1])[*:2]; Orn = NCCC[C@H](N)C(=O)O

Assays:
[1] = molecular target: T1, Fc-tagged human IFNGR1 (Homo sapiens, UniProt P15260); assay: Binding kinetics and affinity to IFNGR1 by surface plasmon resonance (SPR); details: SPR, 25 °C, 1:1 binding model; for Kd: read-out: KD; for kon: single-cycle kinetics, read-out: ka
T1 construct: purchased ACROBiosystems
T1 sequence (P15260 18-489): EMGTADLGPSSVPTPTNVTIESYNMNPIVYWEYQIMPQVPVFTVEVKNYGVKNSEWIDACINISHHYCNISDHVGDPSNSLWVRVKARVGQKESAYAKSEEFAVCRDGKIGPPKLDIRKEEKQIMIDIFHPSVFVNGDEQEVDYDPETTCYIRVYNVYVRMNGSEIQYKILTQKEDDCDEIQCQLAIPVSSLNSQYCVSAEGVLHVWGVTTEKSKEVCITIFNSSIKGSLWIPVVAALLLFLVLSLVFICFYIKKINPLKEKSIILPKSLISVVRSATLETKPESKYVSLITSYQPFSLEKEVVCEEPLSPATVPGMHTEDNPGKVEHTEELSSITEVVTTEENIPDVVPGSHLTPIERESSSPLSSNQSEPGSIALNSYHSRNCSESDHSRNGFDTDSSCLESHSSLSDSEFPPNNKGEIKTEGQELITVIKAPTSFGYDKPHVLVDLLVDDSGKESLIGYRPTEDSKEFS
Summary of the method: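 Fc-tagged IFNGR1 captured on a protein G chip (1,200–1,600 RU), 25 °C, running buffer 10 mM Tris-HCl pH 8.0, 150 mM NaCl, 0.05% Tween 20, 0.1% DMSO. Single-cycle kinetics with five twofold-diluted peptide concentrations at 30 μL/min. Sensorgrams fitted to a 1:1 binding model for kinetic constants and affinity.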

[2] = Serum stability assay (LC/MS); assay type: in vitro ADME, human; details: human serum, 37 °C, LC/MS, relative to internal standard peptide, n = 3; for half-life: human, read-out: half-life in human serum (t1/2) (converted)
Description: Binding affinities of IA1 and IA2 against IFNGR1 were evaluated by surface plasmon resonance (SPR) (Table 1 and SI Figure S6A). […] To investigate the contribution of the N-terminal [yVPβ^1RR] motif and β^1 residue in IA1, three scrambled peptides IA1s1–3 and a variant IA1β^14A were synthesized and evaluated. […] We next evaluated inhibitory activities of IA1 and IA2 against the ligand–receptor PPI between IFN-γ and IFNGR1 using AlphaLISA (Table 1 and SI Figure S7).[37] […] We also determined the serum half-lives of IA1 and IA2, considering peptidase resistance as an important factor for therapeutic peptides.[24] A sample peptide and a peptidase-resistant internal standard peptide were coincubated in human serum at 37 °C, and the relative amount of the remaining sample peptide was estimated by LC/MS. […]
10–200 μM synthetic peptide and 5 μM serum-resistant internal standard peptide consisting only of D-amino acids (NH2-PEG5-wstndwstnd-PEG5-CONH2)3 were mixed and incubated in human serum (Cosmo Bio, 12181201) at 37 °C for up to 120 h. At each time point, 4 μL of the mixture was removed and quenched by adding 12 μl methanol. Following centrifugation (15,000 g, 4 °C, 5 min), 10 μL of the supernatant was mixed with 40 μl of 1% (v/v) TFA. Following centrifugation (15,000 g, 4 °C, 5 min), the supernatant was collected for LC/MS analysis, which used a reverse-phase column (ACQUITY UPLC BEH C18, 1.7 μm, 2.1 × 150 mm; Waters) and a Xevo G2-XS QTof system (Waters) with a linear gradient from 1% B to 61% B. Buffer A was water with 0.1% (v/v) formic acid; buffer B was acetonitrile with 0.1% (v/v) formic acid. The percentages of remaining peptides were determined by the peak area integration of the chromatograms. For tandem mass spectrometry, MS/MS spectra were acquired with a 0.2 s scan time, with 10−30 eV collision energy. The obtained LC/MS data was analyzed using MassLynx 4.1 (Waters). […]

[3] = molecular target: T2, IFN-γ/IFNGR1 protein–protein interaction (Homo sapiens, UniProt P15260); assay: IFNGR1 inhibition assay using AlphaLISA; assay type: biochemical; details: four-parameter dose–response fit, n = 3
T2 construct: purchased ACROBiosystems
T2 sequence (P15260 18-245 limits assumed): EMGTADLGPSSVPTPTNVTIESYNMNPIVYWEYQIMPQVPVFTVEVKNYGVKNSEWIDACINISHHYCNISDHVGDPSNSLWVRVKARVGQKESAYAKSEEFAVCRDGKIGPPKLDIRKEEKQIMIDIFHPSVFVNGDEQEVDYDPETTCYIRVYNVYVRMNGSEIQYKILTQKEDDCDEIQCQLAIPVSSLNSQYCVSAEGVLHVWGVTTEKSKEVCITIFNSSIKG
Description: IFNGR1 inhibition assay using AlphaLISA
The inhibitory activity of peptides against IFN-γ/IFNGR1 protein–protein interaction (PPI) was determined by AlphaLISA.5 Peptides, proteins, and beads were diluted in AlphaLISA immunoassay buffer (PerkinElmer, AL000C). 3.6 μL of 5 nM Fc-tagged IFNGR1 and 3.6 μL of synthetic peptides were mixed in AlphaPlate-384 Shallow Well (PerkinElmer) and preincubated at 25 °C for 10 min. 3.6 μL of 15 nM biotin-tagged IFN-γ was then added to the mix and incubated at 25 °C for 20 min. 3.6 μL each human IgG acceptor beads (PerkinElmer) and streptavidin donor beads (PerkinElmer) were added to the above mix and incubated at 25 °C for 30 min in dark place. Emission at 615 nm was measured […]
by EnSpire Multimode Plate Reader (PerkinElmer). The fraction of bound IFN-γ/IFNGR1 was calculated by the intensity of emission in the presence of peptide divided by that in the absence of […]
peptide. […]
Puromycin. Normocin, Blasticidin, Zeocin, and Puromycin were excluded when conducting the experiments. To evaluate the cellular activity of peptides, peptide mixtures were added to 50,000 cells/well in a flat-bottom 96-well plate and pre-incubated for 30 min at 37 °C before stimulation.
Subsequently, 1 ng/mL of recombinant IFN-γ (InvivoGen) was added to each well in a final reaction volume of 200 μL, followed by incubation for 20 h at 37 °C. 20 μL of supernatants from the induced cells was added to 180 μL Q U A N T I-Blue TM solution (InvivoGen). After further incubation for 3 h at 37 °C, the expression levels of the secreted embryonic alkaline phosphatase (SEAP) were determined by reading the O.D. at 650 nm on a Tecan M1000 PRO microplate reader (Tecan Group) and normalized to the non-treated well. IC50 value was analyzed by a normalized dose-response curve fitting by using GraphPad Prism 9.
HEK-DualTM IFN-γ cells were used for the cell viability assay. 10,000 cells/well were added to each well in a flat-bottom 96-well plate. After 24 h, peptide mixtures were added to each well in a final volume of 100 μL. After further incubation for 24 h, 10 μL CCK-8 reagent (Dojindo) was added to […]

[4] = test system: HEK-Dual IFN-γ cells; assay: Cell viability assay (CCK-8); details: up to 50 μM, 24 h incubation

| Kd [1] [nM] | kon [1] [M⁻¹ s⁻¹] | half-life in human serum (t1/2) [2] [h] | half-life [2] [h] | IC50 [3] [nM] | SMILES | cytotoxicity [4] |
| --- | --- | --- | --- | --- | --- | --- |
| 6.1 ± 2.2 | 210000 ± 70000 | 0.71 ± 0.04 | 0.37 | 10 ± 1 | CC(C)[C@@H]1NC(=O)[C@@H](Cc2ccc(O)cc2)NC(=O)CSC[C@H](C(N)=O)NC(=O)[C@H](CC(N)=O)NC(=O)[C@H]2C[C@H](C2)NC(=O)[C@H](CCCNC(=N)N)NC(=O)[C@@H]2CCCN2C(=O)[C@H]([C@@H](C)O)NC(=O)[C@H](CCCNC(=N)N)NC(=O)[C@H](CCCNC(=N)N)NC(=O)[C@H](CO)NC(=O)[C@H](CCCNC(=N)N)NC(=O)[C@H](CCCNC(=N)N)NC(=O)[C@@H]2CCC[C@@H]2NC(=O)[C@@H]2CCCN2C1=O [IB4γ^213γ^1, ^AcyVPβ^1RRSRRTPRγ^1Nc-NH2] ({CH2CO}-[dY]VP[X1]RRSRRTPR[Acbc(cis-1,3)]N[dC]-NH2; thioether N-15) |  |
| 12 ± 1 | 4.7e+06 ± 600000 |  | 49 ± 4 | 15 ± 5 | CC(C)[C@@H]1NC(=O)[C@@H](Cc2ccc(O)cc2)NC(=O)CSC[C@H](C(N)=O)NC(=O)[C@H](CC(N)=O)NC(=O)[C@H]2C[C@H](C2)NC(=O)[C@H](CCCN)NC(=O)[C@@H]2CCCN2C(=O)[C@H]([C@@H](C)O)NC(=O)[C@H](CCCN)NC(=O)[C@H](CCCN)NC(=O)[C@H](CO)NC(=O)[C@H](CCCNC(=N)N)NC(=O)[C@H](CCCNC(=N)N)NC(=O)[C@@H]2CCC[C@@H]2NC(=O)[C@@H]2CCCN2C1=O [IB4γ^213γ^1Orn, ^AcyVPβ^1RRSOOTPOγ^1Nc-NH2] ({CH2CO}-[dY]VP[X1]RRS[Orn][Orn]TP[Orn][Acbc(cis-1,3)]N[dC]-NH2; thioether N-15) | none of them exhibited notable cytotoxicity up to 50 μM |
| 28 ± 6 | 92000 ± 27000 |  | 1.8 ± 0.6 | 14 ± 1 | CC(C)[C@@H]1NC(=O)[C@@H](Cc2ccc(O)cc2)NC(=O)CSC[C@H](C(N)=O)NC(=O)[C@H](CC(N)=O)NC(=O)[C@H](Cc2c[nH]cn2)NC(=O)[C@H](CCCNC(=N)N)NC(=O)[C@H](C)NC(=O)[C@H]([C@@H](C)O)NC(=O)[C@H](Cc2c[nH]cn2)NC(=O)[C@@H]2CCCN2C(=O)[C@H](CO)NC(=O)[C@H](CCCNC(=N)N)NC(=O)[C@H](CCCNC(=N)N)NC(=O)[C@@H]2CCC[C@@H]2NC(=O)[C@@H]2CCCN2C1=O [IB5γ^211A, ^AcyVPβ^1RRSPHTA RHNc-NH2] ({CH2CO}-[dY]VP[X1]RRSPHTARHN[dC]-NH2; thioether N-15) |  |
| 17 ± 5 | 320000 ± 50000 |  | 34 ± 2 | 27 ± 4 | CC(C)[C@@H]1NC(=O)[C@@H](Cc2ccc(O)cc2)NC(=O)CSC[C@H](C(N)=O)NC(=O)[C@H](CC(N)=O)NC(=O)[C@H](Cc2c[nH]cn2)NC(=O)[C@H](CCCNC(=N)N)NC(=O)[C@H]2C[C@H](C2)NC(=O)[C@H]([C@@H](C)O)NC(=O)[C@H](Cc2c[nH]cn2)NC(=O)[C@@H]2CCCN2C(=O)[C@H](CO)NC(=O)[C@H](CCCNC(=N)N)NC(=O)[C@H](CCCNC(=N)N)NC(=O)[C@@H]2CCC[C@@H]2NC(=O)[C@@H]2CCCN2C1=O [IB5γ^211γ^1, ^AcyVPβ^1RRSPHTγ^1RHNc-NH2] ({CH2CO}-[dY]VP[X1]RRSPHT[Acbc(cis-1,3)]RHN[dC]-NH2; thioether N-15) | none of them exhibited notable cytotoxicity up to 50 μM |
